Data from paper PMC3779154, “Identification of Therapeutic Candidates for Chronic Lymphocytic Leukemia from a Library of Approved Drugs” (PLoS ONE, 2013).
Where two headings read alike, the source gives them in different places.

Experiments:
[1] = tested on: ME-180 human cervical carcinoma cell line; test: Cell viability assay, ME-180 cells (NPC library profiling)
Source text: Based on the definition of actives, inactives and inconclusive mentioned above, compounds were further clustered hierarchically using Spotfire DecisionSite 8.2 (Spotfire Inc., Cambridge, MA) based on their activity outcomes from the primary screen across a wide variety of cell viability assays against different cell lines or primary patient cells. Each compound was converted into an integer which represents its activity outcome in each cell viability assay. […] Integer 2 represents compounds in “inconclusive” category which is corresponding to light red in the heat map. […] Compounds not tested in the assay were labeled as 4 and shown as grey in the heat map.

[2] = tested on: normal and solid tumor cell lines
[3] = tested on: lymphocytes from normal donors; test: qHTS luminescent ATP cell viability assay, primary screen, normal donor lymphocytes; conditions: differential efficacy or IC50 shift >5-fold
Source text: (§1) Lymphocytes from 13 CLL treatment naïve patients (Table 1 ) and 5 normal donors were obtained by lymphapheresis with written informed consent and isolated by gradient centrifugation using Lymphocyte Separation Medium (MP Biomedicals, Solon, OH) and used fresh or cryopreserved in liquid nitrogen in 10% dimethyl sulfoxide, 90% FCS. CLL patients were consented on the institutional review board (IRB) approved at the National Heart, Lung, and Blood Institute (NHLBI, Office of Clinical Affairs, Bldg 10, CRC. Room 6-5140, Bethesda, Maryland 20892-1608) with protocol 04-H-0012 and samples from normal donors were collected by the Department of Transfusion Medicine, National Institutes of Health (NIH). This study was approved by the IRB mentioned above. Fresh cells were temporally placed on ice and plated for screening within 3 hrs of apheresis. Frozen cells were thawed the night before the assay and incubated in T175 flask in AIM V medium to recover overnight. Analysis of IGHV gene status was performed as described. CLL samples were cultured in AIM V serum free medium (Gibco-Invitrogen, Long Island, NY).
(§2) Compound formatting and qHTS were performed as described previously. The final concentration of the NPC compounds in the 4 µL assay volume ranged from 57 µM to 0.7 nM in 1:5 dilution steps. The positive control plate format was as follows: columns 1 and 3, DMSO only; column 2, doxorubicin, a known cytotoxic chemotherapy agent in a 1:2 dilution series from 10 µM to 5 nM in DMSO; and column 4, doxorubicin at 10 µM in DMSO.
To determine compound activity in the qHTS assay, the concentration-response data for each sample was plotted and modeled by a four parameter logistic fit yielding IC50 and efficacy (maximal response) values as previously described. […] Briefly, raw plate reads for each titration point were first normalized relative to the positive control compound (100%) and DMSO-only wells (basal, 0%), and then corrected by applying a pattern correction algorithm using compound-free control plates (i.e., DMSO-only plates) at the beginning and end of the NPC compound plate stack. […]

caspase-3/7 = test: Caspase-Glo 3/7 activation assay in CLL samples; format: cell-based, human; conditions: CLL samples, 24 hours, read-out: EC50 caspase-3/7 activity
Protocol: The effect of selected compounds on caspase activity was measured using a homogeneous luminescent method (Caspase-Glo® 3/7, 8 and 9 kits, Promega, Madison, WI). Briefly in this assay, caspase induced by cells cleaves a pro-luciferin substrate where a tetrapeptide caspase substrate - DEVD (asp-glu-val-asp) is cleaved to free aminoluciferin, which can be used as a substrate by luciferase yielding a bioluminescent signal. The luminescent signal is proportional to the amount of caspase activity present in the cells. Cells were dispensed in culture medium at 5,000/cells/5uL/well in 1536-well white/solid-bottom assay plates. The cells were incubated for overnight at 37°C. The compounds (23nL/well) were added via the pin tool. The treated cells were further incubated for 24 h at 37°C, followed by the addition of the Caspase-Glo 3/7, 8 or 9 reagents at 5uL/well. After a 30 min incubation at room temperature, the luminescence intensity of the assay plates was measured using a ViewLux Plate Reader. The caspase activity was normalized to DMSO control.

[4] = tested on: fresh CLL patient lymphocytes; conditions: read-out: IC50 CLL, average of cells from 7 CLL patients, fresh, Figure 5
Protocol: (§3) Cell viability was measured using a luciferase-based ATP quantitation assay (CellTiter-Glo^TM, Promega). The intracellular ATP content indicates the number of viable (i.e. metabolically competent) cells after compound treatment. […] After that, a total of 23 nL of compounds at 8 selected concentrations from the NPC library or positive control (10 mM stock of doxorubicin hydrochloride) in DMSO was transferred to each well of the assay plate using a pintool (Kalypsys, San Diego, CA), and the plates were further incubated at 37 °C with 5% CO2 for 24 hours to allow the reaction. Then 4µL of CellTilter-Glo luminescent substrate mix was added to each well. The plate was incubated at room temperature for 15 minutes. The plates were measured on a ViewLux plate reader (PerkinElmer) with clear filter. […] The test volume of 5,000 cells/4 μL/well was selected as the final assay condition in cell density tests based on the assay performance statistics: signal/background ratio, coefficient of variation and Z’-factor (data not shown).
(§4) Fresh primary cells were also obtained from two unaffected normal donors and seven CLL patients whose blood samples were collected within hours of apheresis and which had not been included in our previous experiments.

[5] = tested on: lymphocytes from normal donors; conditions: for potency shift between CLL and normal donor samples: fresh cells, normal IC50 vs CLL IC50
Protocol: (§5) Cell viability was measured using a luciferase-based ATP quantitation assay (CellTiter-Glo^TM, Promega). The intracellular ATP content indicates the number of viable (i.e. metabolically competent) cells after compound treatment. Four µL of CLL cells resuspended in AIM medium at 1,330,000 cells/ml, were dispensed into each well of white, solid bottom, 1536-well tissue culture–treated plates using a Multidrop-Combi dispenser and incubated overnight. After that, a total of 23 nL of compounds at 8 selected concentrations from the NPC library or positive control (10 mM stock of doxorubicin hydrochloride) in DMSO was transferred to each well of the assay plate using a pintool (Kalypsys, San Diego, CA), and the plates were further incubated at 37 °C with 5% CO2 for 24 hours to allow the reaction. Then 4µL of CellTilter-Glo luminescent substrate mix was added to each well. The plate was incubated at room temperature for 15 minutes. The plates were measured on a ViewLux plate reader (PerkinElmer) with clear filter.
(§6) These compounds were then re-tested in the cell viability assay using 12 point titrations with concentration ranging from 57 µM to 0.3 nM with 1:3 dilution.
as §4

[6] = tested on: lymphocytes from normal donors; test: cells; conditions: Homo sapiens, Lymphocyte, read-out: IC50 normal
Protocol: as §5, §6, §4

[7] = tested on: human thioredoxin reductase; parameters: method as in PMID 19665452; conditions: NADPH-reduced form; cited from earlier work
[8] = tested on: lymphocytic leukemia P388; parameters: method as in PMID 6778607; conditions: cited from earlier work
primary CLL cells = test: qHTS luminescent ATP cell viability assay (CellTiter-Glo), primary screen, frozen CLL patient cells; format: cell-based, human; conditions: CLL cells, 24 h, Figure 1
Source text: as §1, §2
To determine compound activity in the qHTS assay, the concentration-response data for each sample was plotted and modeled by a four parameter logistic fit yielding IC50 and efficacy (maximal response) values as previously described. Data normalization and curve fitting were performed using in-house informatics tools. Briefly, raw plate reads for each titration point were first normalized relative to the positive control compound (100%) and DMSO-only wells (basal, 0%), and then corrected by applying a pattern correction algorithm using compound-free control plates (i.e., DMSO-only plates) at the beginning and end of the NPC compound plate stack. […] In brief, Class 1.1 and 1.2 were the highest-confidence complete CRCs containing upper and lower asymptotes with efficacies ≥ 80% and < 80%, respectively. Class 2.1 and 2.2 were incomplete CRCs having only one asymptote with efficacy ≥ 80% and < 80%, respectively.
Compounds from the primary qHTS screen were further classified into three categories according to the quality of curve fit and efficacy.

[9] = tested on: fresh CLL patient lymphocytes; test: cells; conditions: Homo sapiens, Lymphocyte
Protocol: as §3, §4

CLL = tested on: CLL; parameters: method as in PMID 20603650; conditions: oral, single-agent, treated CLL patients; cited from earlier work

## tyrothricin
[1]
  cytotoxicity in ME-180 cells: prominent cytotoxicity
[2]
  activity in cytotoxicity profiling assays: pan-active
  potency variation across cytotoxicity profiling assays: < 5 fold

## OCC(S)CS (centres unmarked) [dimercaprol]
[3]
  differential cytotoxicity between CLL cells and lymphocytes from normal donors: differential cytotoxicity
caspase-3/7; Homo sapiens
  EC50: < 0.1 µM
[4]
  IC50: < 1 µM
[4]; listed as Dimercaprol
  IC50: 0.38 µM
[5]
  potency shift between CLL and normal donor samples: 50 fold
[6]
  IC50: 19.4 µM

## OC[C@H]1O[C@H]([S-])[C@H](O)[C@@H](O)[C@@H]1O.[Au+] [aurothioglucose]
[7]
  inhibition of human thioredoxin reductase: strongly inhibit

## CC(=O)OC[C@H]1O[C@@H]([S-])[C@H](OC(C)=O)[C@@H](OC(C)=O)[C@@H]1OC(C)=O.CCP(CC)CC.[Au+] [auranofin]
[3]
  differential cytotoxicity between CLL cells and lymphocytes from normal donors: differential cytotoxicity
caspase-3/7
  EC50: < 0.1 µM
[4]
  IC50: < 1 µM
[4]; listed as Auranofin
  IC50: 0.07 µM
[5]
  potency shift between CLL and normal donor samples: 30 fold
[5]; listed as Auranofin
  potency shift between CLL and normal donor samples: greater than 30 fold
[5]; read-out: IC50 normal, average of 2 normal donors, fresh, Figure 5
  IC50: 2.05 µM
[8]
  life span of mice inoculated with lymphocytic leukemia P388: effective in increasing the life span
[7]
  inhibition of human thioredoxin reductase: strongly inhibit

## O=C(O)CCCc1ccc(N(CCCl)CCCl)cc1 [chlorambucil]
Primary CLL cells
  concentration-response curve class: 3
[9]; 24 h
  IC50: 12 to 30 µM
CLL
  frequency of complete responses: less than 5%

## Nc1ncn([C@@H]2O[C@H](CO)[C@@H](O)[C@H]2O)c(=O)n1 [azacitidine]
[3]
  differential cytotoxicity between CLL cells and lymphocytes from normal donors: differential cytotoxicity
caspase-3/7; Homo sapiens
  EC50: 5.1 µM
[5]; at 19 µM and 57 µM, the two highest testing concentrations
  difference in efficacy between CLL and unaffected donor samples: over 40%
[5]
  potency shift between CLL and normal donor samples: about 3 fold
[5]; versus CLL cells
  decreased efficacy to normal B cells: over 40%
[9]; read-out: IC50 CLL, average of cells from 7 CLL patients, fresh, Figure 5
  IC50: 8.1 µM
[6]
  IC50: 15.9 µM
